Experimental data from patent US20250197359A1, “CANNABINOID RECEPTOR MODULATING COMPOUNDS” (The U.S.A., as Represented by the Secretary, Department of …, priority 2022, published 2025).

Assays:
[1] = target: CB1 (UniProt P21554); assay: CB1 radioligand binding assay; parameters: species or system human; conditions: read-out: Ki (CB1)
Method: The target compounds were evaluated in vitro at the human CB1 receptor, stably expressed into Chinese hamster ovary (CHO) cells by utilizing radioligand binding studies.
The binding constant for the synthesized compounds were determined by using radioligand binding assay in mouse brain membranes as well as the target compounds were evaluated in vitro at the human CB1 receptor, stably expressed into Chinese hamster ovary (CHO) cells as well as mouse brain membrane CB1. […]

[2] = target: T1, Brain/CB1 (Mus musculus, UniProt P47746); assay: Functional GTPγS binding, Brain/CB1; assay type: biochemical
T1 construct: from tissue; host or cells: mouse brain membranes
T1 sequence (P47746 whole entry): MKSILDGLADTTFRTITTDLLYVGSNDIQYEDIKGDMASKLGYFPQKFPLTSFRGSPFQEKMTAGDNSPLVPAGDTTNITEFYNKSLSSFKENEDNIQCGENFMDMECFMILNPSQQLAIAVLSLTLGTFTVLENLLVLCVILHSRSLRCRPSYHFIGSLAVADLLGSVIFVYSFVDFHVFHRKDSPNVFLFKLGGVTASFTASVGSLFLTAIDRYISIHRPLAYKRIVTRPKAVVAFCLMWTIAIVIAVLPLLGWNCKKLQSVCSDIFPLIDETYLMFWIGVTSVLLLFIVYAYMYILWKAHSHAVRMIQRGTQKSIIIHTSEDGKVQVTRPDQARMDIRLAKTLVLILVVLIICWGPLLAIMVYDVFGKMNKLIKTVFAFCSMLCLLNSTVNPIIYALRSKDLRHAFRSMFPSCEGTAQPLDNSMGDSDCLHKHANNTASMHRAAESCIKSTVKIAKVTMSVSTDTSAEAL
Description: Furthermore, the intermediates urea compounds 8a-m were chlorinated with phosphorus oxychloride in the presence of DIPEA base to form imidoyl chloride intermediate and reacted with acetamidine hydrochloride/methyl carbamimidothioate iodide/methyl carbamimidoselenoate iodide and other amines to furnish the target compounds (10a-34b) (Scheme 2, FIG. 2, Scheme 5, FIG. 5). The urea derivatives were converted to the thiourea derivatives 9a-9d by employing sodium thiosulfate. Compound 8a-b, 8e-f were converted to corresponding thiourea by employing sodium thiosulfate dissolved in water dioxane mixture and the reaction was heated to 85° C. for 2 h. […] The binding constant for the synthesized compounds were determined by using radioligand binding assay in mouse brain membranes as well as the target compounds were evaluated in vitro at the human CB1 receptor, stably expressed into Chinese hamster ovary (CHO) cells as well as mouse brain membrane CB1.

For `N/C(=N\C(=N\S(=O)(=O)c1ccc(C(F)(F)F)cc1)N1CCC(c2ccccc2)C(c2ccc(Br)cc2)=N1)c1ccc(F)cc1F` (centres unmarked) [Compound 10za, (Z)—N—((Z)-amino (2,4-difluorophenyl)methylene)-3-(4-bromophenyl)-4-phenyl-N′-((4-(trifluoromethyl)phenyl)sulfonyl)-5,6-dihydropyridazine-1 (4H)-carboximidamide], the Ki [1] was 9.18 nM and the IC50 [2] was 26 nM.
Compound `N/C(=N\C(=N\S(=O)(=O)c1ccc(C(F)(F)F)cc1)N1CCC(c2ccccc2)C(c2ccc(Cl)cc2)=N1)c1ccccn1` (single isomer, unassigned) [Compound 10vE2, (Z)—N—((Z)-amino (pyridin-2-yl)methylene)-3-(4-chlorophenyl)-4-phenyl-N′-((4-(trifluoromethyl)phenyl)sulfonyl)-5,6-dihydropyridazine-1 (4H)-carboximidamide] has a Ki [1] of 5 nM and an IC50 [2] of 24 nM.
`CC(C)C(N/C(=N/S(=O)(=O)c1ccc(C(F)(F)F)cc1)N1CCC(c2ccccc2)C(c2ccc(Br)cc2)=N1)C(N)=O` (single isomer, unassigned) [Compound 26b, (Z)-2-(3-(4-bromophenyl)-4-phenyl-N′-((4-(trifluoromethyl)phenyl)sulfonyl)-1,4,5,6-tetrahydropyridazine-1-carboximidamido)-3-methylbutanamide] gave an IC50 [2] of 9.5 nM.
With `NC(=O)CN/C(=N/S(=O)(=O)c1ccc(C(F)(F)F)cc1)N1CCC(c2ccccc2)C(c2ccc(Cl)cc2)=N1` (centres unmarked) [Compound 24, (Z)-2-(3-(4-chlorophenyl)-4-phenyl-N′-((4-(trifluoromethyl)phenyl)sulfonyl)-1,4,5,6-tetrahydropyridazine-1-carboximidamido)acetamide] the Ki [1] was 10 nM and the IC50 [2] was 33 nM.
`CC(C)C(N/C(=N/S(=O)(=O)c1ccc(Cl)cc1)N1CCC(c2ccccc2)C(c2ccc(Cl)cc2)=N1)C(N)=O` (single isomer, unassigned) [Compound 30a, (Z)-2-(3-(4-chlorophenyl)-N′-((4-chlorophenyl)sulfonyl)-4-phenyl-1,4,5,6-tetrahydropyridazine-1-carboximidamido)-3-methylbutanamide] gave a Ki [1] of 907 nM and an IC50 [2] greater than 1000 nM.
For `CC(C)C(N/C(=N/S(=O)(=O)c1ccccc1)N1CCC(c2ccccc2)C(c2ccc(Cl)cc2)=N1)C(N)=O` (single isomer, unassigned) [Compound 28b, (Z)-2-(3-(4-chlorophenyl)-4-phenyl-N′-(phenylsulfonyl)-1,4,5,6-tetrahydropyridazine-1-carboximidamido)-3-methylbutanamide], the IC50 [2] was 336 nM.
Compound `N/C(=N\C(=N\S(=O)(=O)c1ccc(C(F)(F)F)cc1)N1CCC(c2ccccc2)C(c2ccc(F)cc2)=N1)c1ccccn1` (centres unmarked) [Compound 10zf, (Z)—N—((Z)-amino (pyridin-2-yl)methylene)-3-(4-fluorophenyl)-4-phenyl-N′-((4-(trifluoromethyl)phenyl)sulfonyl)-5,6-dihydropyridazine-1 (4H)-carboximidamide] has a Ki [1] of 41.7 nM and an IC50 [2] of 209 nM.
`NC(=O)CN/C(=N/S(=O)(=O)c1ccc(Cl)cc1)N1CCC(c2ccccc2)C(c2ccc(Cl)cc2)=N1` (centres unmarked) [Compound 25, (Z)-2-(3-(4-chlorophenyl)-N′-((4-chlorophenyl)sulfonyl)-4-phenyl-1,4,5,6-tetrahydropyridazine-1-carboximidamido)acetamide] gave a Ki [1] of 41.1 nM and an IC50 [2] of 207 nM.
Compound `CC(C)(C)/C(N)=N/C(=N/S(=O)(=O)c1ccc(C(F)(F)F)cc1)N1CCC(c2ccccc2)C(c2ccc(F)cc2)=N1` (centres unmarked) [Compound 10zb, (Z)—N—((Z)-1-amino-2,2-dimethylpropylidene)-3-(4-fluorophenyl)-4-phenyl-N′-((4-(trifluoromethyl)phenyl)sulfonyl)-5,6-dihydropyridazine-1 (4H)-carboximidamide] has a Ki [1] of 75.6 nM and an IC50 [2] of 478 nM.
`C/C(N)=N\C(=N\S(=O)(=O)c1ccc(C)cc1)N1CCC(c2ccccc2)C(c2ccc(Cl)cc2)=N1` (centres unmarked) [Compound 101, (Z)—N—((E)-1-aminoethylidene)-3-(4-chlorophenyl)-4-phenyl-N′-tosyl-5,6-dihydropyridazine-1 (4H)-carboximidamide] gave a Ki [1] of 84 nM and an IC50 [2] greater than 1000 nM.
Compound `CS/C(N)=N/C(=N/S(=O)(=O)c1ccc(C(F)(F)F)cc1)N1CCC(c2ccccc2)C(c2ccc(F)cc2)=N1` (centres unmarked) [Compound 11j, methyl (E)-N′—((Z)-(3-(4-fluorophenyl)-4-phenyl-5,6-dihydropyridazin-1 (4H)-yl)(((4-(trifluoromethyl)phenyl)sulfonyl)imino)methyl)carbamimidothioate] has a Ki [1] of 93 nM and an IC50 [2] greater than 1000 nM.
Work on `N/C(=N\C(=N\S(=O)(=O)c1ccc(C(F)(F)F)cc1)N1CCC(c2ccccc2)C(c2ccc(Cl)cc2)=N1)c1cccs1` (centres unmarked) [Compound 10w, (Z)—N—((Z)-amino (thiophen-2-yl)methylene)-3-(4-chlorophenyl)-4-phenyl-N′-((4-(trifluoromethyl)phenyl)sulfonyl)-5,6-dihydropyridazine-1 (4H)-carboximidamide] yielded a Ki [1] of 140 nM and an IC50 [2] of 234 nM.
`C/C(N)=N/C(=N/S(=O)(=O)c1ccc(C(F)(F)F)cc1)N1CCC(c2ccccc2)C(c2ccc(Br)cc2)=N1` (centres unmarked) [Compound 10y, (Z)—N—((Z)-1-aminoethylidene)-3-(4-bromophenyl)-4-phenyl-N′-((4-(trifluoromethyl)phenyl)sulfonyl)-5,6-dihydropyridazine-1 (4H)-carboximidamide] was tested, and the Ki [1] was 57.2 nM and the IC50 [2] was 92 nM.
With `N/C(=N\C(=N\S(=O)(=O)c1ccc(C(F)(F)F)cc1)N1CCC(c2ccccc2)C(c2ccc(Cl)cc2)=N1)c1ccccn1` (single isomer, unassigned) [Compound 10vE1, (Z)—N—((Z)-amino (pyridin-2-yl)methylene)-3-(4-chlorophenyl)-4-phenyl-N′-((4-(trifluoromethyl)phenyl)sulfonyl)-5,6-dihydropyridazine-1 (4H)-carboximidamide] the Ki [1] was 11.5 nM and the IC50 [2] was 107 nM.
`C/C(N)=N\C(=N\S(=O)(=O)c1ccc2ccccc2c1)N1CCC(c2ccccc2)C(c2ccc(Cl)cc2)=N1` (centres unmarked) [Compound 10f, (Z)—N—((E)-1-aminoethylidene)-3-(4-chlorophenyl)-N′-(naphthalen-2-ylsulfonyl)-4-phenyl-5,6-dihydropyridazine-1 (4H)-carboximidamide] was tested, and the Ki [1] was 31.4 nM and the IC50 [2] was 132 nM.
With `CC(C)C(N/C(=N/S(=O)(=O)c1ccc(C(F)(F)F)cc1)N1CCC(c2ccccc2)C(c2ccc(Br)cc2)=N1)C(N)=O` (single isomer, unassigned) [Compound 26a, (Z)-2-(3-(4-bromophenyl)-4-phenyl-N′-((4-(trifluoromethyl)phenyl)sulfonyl)-1,4,5,6-tetrahydropyridazine-1-carboximidamido)-3-methylbutanamide] the IC50 [2] was greater than 1000 nM.
`C/C(N)=N\C(=N\S(=O)(=O)c1ccc(C(F)(F)F)cc1)N1CCC(c2ccccc2)C(c2ccc(Cl)cc2)=N1` (single isomer, unassigned) [Compound 10bE2, (Z)—N—((E)-1-aminoethylidene)-3-(4-chlorophenyl)-4-phenyl-N′-((4-(trifluoromethyl)phenyl)sulfonyl)-5,6-dihydropyridazine-1 (4H)-carboximidamide] gave an IC50 [2] of 34 nM.
For `COc1ccc(S(=O)(=O)/N=C(/NC(C(N)=O)C(C)C)N2CCC(c3ccccc3)C(c3ccc(Cl)cc3)=N2)cc1` (single isomer, unassigned) [Compound 27a, (Z)-2-(3-(4-chlorophenyl)-N′-((4-methoxyphenyl)sulfonyl)-4-phenyl-1,4,5,6-tetrahydropyridazine-1-carboximidamido)-3-methylbutanamide], the IC50 [2] was greater than 1000 nM.
`N/C(=N\C(=N\S(=O)(=O)c1ccc(C(F)(F)F)cc1)N1CCC(c2ccccc2)C(c2ccc(Cl)cc2)=N1)c1ccccc1F` (single isomer, unassigned) [Compound 10tE1, (Z)—N—((Z)-amino (2-fluorophenyl)methylene)-3-(4-chlorophenyl)-4-phenyl-N′-((4-(trifluoromethyl)phenyl)sulfonyl)-5,6-dihydropyridazine-1 (4H)-carboximidamide] showed an IC50 [2] of 51 nM.
`C/C(N)=N\C(=N\S(=O)(=O)c1ccc(C(F)(F)F)cc1)N1CCC(c2ccccc2)C(c2ccc(Cl)cc2)=N1` (single isomer, unassigned) [Compound 10bE1, (Z)—N—((E)-1-aminoethylidene)-3-(4-chlorophenyl)-4-phenyl-N′-((4-(trifluoromethyl)phenyl)sulfonyl)-5,6-dihydropyridazine-1 (4H)-carboximidamide] showed an IC50 [2] greater than 1000 nM.
Work on `CC(C)C(N/C(=N/S(=O)(=O)c1ccccc1)N1CCC(c2ccccc2)C(c2ccc(Cl)cc2)=N1)C(N)=O` (single isomer, unassigned) [Compound 28a, (Z)-2-(3-(4-chlorophenyl)-4-phenyl-N′-(phenylsulfonyl)-1,4,5,6-tetrahydropyridazine-1-carboximidamido)-3-methylbutanamide] yielded an IC50 [2] greater than 1000 nM.
Work on `N/C(=N\C(=N\S(=O)(=O)c1ccc(C(F)(F)F)cc1)N1CCC(c2ccccc2)C(c2ccc(Cl)cc2)=N1)c1ccccc1F` (single isomer, unassigned) [Compound 10tE2, (Z)—N—((Z)-amino (2-fluorophenyl)methylene)-3-(4-chlorophenyl)-4-phenyl-N′-((4-(trifluoromethyl)phenyl)sulfonyl)-5,6-dihydropyridazine-1 (4H)-carboximidamide] yielded an IC50 [2] of 18 nM.
